Experimental data as given in patent US12398196B2, “Fused polypeptide with multifunctional activities and use thereof” (NANJING ANJI BIOLOGICAL TECHNOLOGY CO., LTD., priority 2019, dated 2025).
Ends that are not written are not given here.

Assays:
[1] = test system: SD rats with CCl4-induced hepatic fibrosis; experiment: CCl4-induced hepatic fibrosis animal model; format: in vivo; details: CCl4 8 weeks, polypeptides 6 mg/kg s.c. once a day, colchicine intragastric 5 times/week
Description: Source and strain: SPF level, SD rats, provided by Shanghai Xipuer-Bikai laboratory Animal Co., Ltd. (laboratory animal license: SCXK (hu) 2013-0016)
There were 10 rats in each group. Modeling was performed on the rats. Each group other than the blank group was injected with 40% CCl4 intraperitoneally twice a week, the first injection was performed at 3 mL/kg, and then administration was performed at 2 mL/kg. Administration was performed for 8 weeks, and a total of 16 injections were provided to induce hepatic fibrosis. After the intraperitoneal injection of CCl4 for the fourth time, polypeptide therapy was started on the next day, and administration was performed by subcutaneous injection once a day until the end of induction. After the intraperitoneal injection of CCl4 for the fourth time, colchicine was administrated on the next day at 200 μg/kg, 5 times a week, and intragastric administration therapy was implemented. After induction for 8 weeks, the administration was stopped. On the second day, the SD rats were dissected, blood was taken, and the liver tissue was taken and stored in a refrigerator at −80° C. for later use. The expressions of AST and ALT in serum and HYP in the rat liver tissue were detected.

mice with skin fibrosis = experiment: Bleomycin-induced skin fibrosis model; format: in vivo, C57/BL black mice; details: C57/BL mice, bleomycin s.c. 28 days; 10 mg/kg s.c. twice a day
Description: Male C57/BL black mice aged 6-8 weeks, purchased from Nanjing Qinglong Mountain Animal Farm. Bleomycin (10 μg/mL) was injected subcutaneously every day for 28 days to form skin fibrosis. During the modeling period, the administration groups were given polypeptide drugs twice a day for treatment. After modeling, the mice were killed on the next day, and the skin tissue of the mouse back was taken to detect the content of HYP in the skin tissue. [table]

[2] = test system: mice with myocardial fibrosis; experiment: Isoprenaline-induced myocardial fibrosis model; format: in vivo; details: BALB/c mice, isoprenaline 5 mg/kg 7 days; 12 mg/kg s.c. twice a day
Description: 1. Experimental Mice: 10-Week-Old Male BALB/c Mice (with an Average Weight of 20 g).
In the model group, the experimental mice were injected with isoprenaline (ISO) (5 mg/kg) subcutaneously on the back of the mice every day for 7 consecutive days, and the mice were injected with normal saline subcutaneously (200 μL/mouse) every day. In the blank group, normal saline was injected subcutaneously (200 μL/mouse) every day. While a model was made, polypeptide drugs were administrated for treatment by subcutaneous injection. After the 8th day, blood was taken and was centrifuged, the supernatant was taken, and the content of TGF-β1 in serum was detected.

[3] = test system: SD rats with bleomycin-induced pulmonary fibrosis; experiment: Bleomycin-induced pulmonary fibrosis animal model; format: in vivo; details: for Survival rate (%): bleomycin 5 mg/kg intratracheal, polypeptides 10 mg/kg subcutaneous twice a day for 14 days, positive drug Nintedanib intragastric once a day, model group 57.1%; for content of HYP in lung tissues, difference from model group / content of TGF-β1 in serum, difference from model group: polypeptides 10 mg/kg s.c. twice a day, Nintedanib 25 mg/kg intragastric once a day, 14 days
Description: Source and strain: clean SD rats, provided by Comparative Medicine Center of Yangzhou University (laboratory animal production license: SCXK (Su) 2012-0004); Certification of Using of Laboratory Animal: SYXK (Su) 2012-0035).
SD rats were anesthetized by intraperitoneal injection of 1 mL/100 g 4% chloral hydrate. After anesthesia, the rats were fixed and their necks were disinfected by using cotton with 75% alcohol. The skin of the rat neck was longitudinally cut with scissors, and the fascia and muscle were longitudinally bluntly torn with tweezers to expose the trachea. A syringe was inserted into the trachea to inject 5 mg/kg bleomycin, while a blank group was injected with an equal amount of normal saline. Then a rat plate was quickly erected and rotated, the rats' breathing was observed, the neck wound was sterilized after rotation and was sewn, and an amoxicillin anti-inflammatory drug was sprinkled on the suture. After the operation, the rats were put back into a dry and clean cage for resting, waiting was performed for awakening. The rats were awakened after about 1-2 hours, and then fed normally. On the 7th day after modeling, modeling group animals randomly fell into a model group, a Nintedanib positive drug group, polypeptide I, II, III and IV dosage groups, and a normal control group, and the groups were administered separately for an administration cycle of 14 days. Living situations of rats were observed every day and their weights were weighed. After administration for 14 days, the eyeballs were removed and blood was taken, the rats were dissected, and lungs were taken. The content of TGF-β1 in serum and the content of HYP in lung tissues were detected.

[4] = test system: SD rats with renal fibrosis; experiment: Renal fibrosis model (ureter ligation); format: in vivo; details: 6 mg/kg s.c. twice a day, 14 days
Description: Clean grade male SD rats, purchased from Nanjing Qinglong Mountain Animal Farm, and weighed 180-200 g at the time of purchase, 190-210 g at the beginning of modeling, and 180-200 g at the beginning of administration.
A renal fibrosis animal model was established. SD rats were anesthetized with 4% chloral hydrate, injected with 1 mL/100 g intraperitoneally, fixed to an operation board, and sterilized in an operation area for later use. […] Muscular layers and abdominal walls were sewed layer by layer, the suture was disinfected with alcohol. After SD rats woke up, the rats were put into a cage for feeding. In the blank group, ureter was not ligated, and other steps were the same.
Then, the animals fell into a blank group, a model group, and polypeptide administration groups, with 10 animals in each group, and the administration was started on the second day after the operation, and was performed for 14 days. After administration for 14 days, blood was taken and supernatant was taken to detect the content of TGF-β1 in serum.

Mycoplasma pneumoniae = experiment: Mouse pneumonia model, mycoplasma pneumonia; format: in vivo, BALB/C mice; set-up: unit not given here; details: nasal drip, average values + standard deviation
Text: (§1) A mouse pneumonia model was successfully established by using a nasal drip method. BALB/C mice with a body weight of 18-24 g were selected, and then anesthetized with ether on day 0, day 1 and day 2, respectively, prepared Streptococcus pneumoniae bacteria solution, adenovirus concentrated solution, Mycoplasma pneumoniae, Chlamydia pneumoniae, protozoa and pneumonia fungi were slowly dropped into the nasal cavity of the mice, so that the bacteria solutions entered the trachea and bronchi, and the bacteria solutions were prevented from flowing into the esophagus during the operation to avoid inactivation of the bacteria solutions, so that the mouse pneumonia model was established. After the model was successfully established, the polypeptide according to the present disclosure was administered, as shown in FIG. 9 and Table 7. […] The experimental results are represented on the basis of average values+standard deviation.

pneumonia fungi = experiment: Mouse pneumonia model, fungal pneumonia; format: in vivo, BALB/C mice; set-up: unit not given here; details: nasal drip, average values + standard deviation
Text: as §1

[5] = test system: multiple pulmonary infections; experiment: Mouse pneumonia model, pneumonia caused by pulmonary infections; format: in vivo, BALB/C mice; set-up: unit not given here; details: nasal drip, average values + standard deviation
Text: as §1

adenovirus = experiment: Mouse pneumonia model, viral pneumonia; format: in vivo, BALB/C mice; set-up: unit not given here; details: nasal drip, average values + standard deviation
Text: as §1

protozoa = experiment: Mouse pneumonia model, protozoal pneumonia; format: in vivo, BALB/C mice; set-up: unit not given here; details: nasal drip, average values + standard deviation
Text: as §1

Streptococcus pneumoniae = experiment: Mouse pneumonia model, bacterial pneumonia; format: in vivo, BALB/C mice; set-up: unit not given here; details: nasal drip, average values + standard deviation
Text: as §1

Chlamydia pneumoniae = experiment: Mouse pneumonia model, chlamydia pneumonia; format: in vivo, BALB/C mice; set-up: unit not given here; details: nasal drip, average values + standard deviation
Text: as §1

[6] = bleomycin-induced pulmonary fibrosis

## COc1cc2c(c(OC)c1OC)-c1ccc(OC)c(=O)cc1[C@@H](NC(C)=O)CC2 [Colchicine, reference compound]
[1]
  content of ALT in serum, difference from model group: significantly lower than those in the model group
  content of AST in serum, difference from model group: highly significantly different from the model group (** P<0.01)
  content of HYP in the liver tissue, difference from model group: highly significantly different from the model group (*** P<0.001)

## PRCYCGEGGGGIVRRADRAAVPGGGGRGD (cysteine pairing not given here) [Polypeptide IV]
Mice with skin fibrosis
  content of HYP in the skin tissue, difference from model group: highly significantly different from the model group (*P<0.05)
[2]
  content of TGF-β1 in serum, difference from model group: highly significantly different from the model group (*P<0.05)
[3]
  Survival rate (%): 92.9%
[3]; [6]
  content of HYP in lung tissues, difference from model group: highly significantly different from the model group (** P<0.01)
  content of TGF-β1 in serum, difference from model group: highly significantly different from the model group (** P<0.01)
[4]
  content of TGF-β1 in serum, difference from model group: highly significantly different from the model group (*** P<0.001)
Mycoplasma pneumoniae
  Inhibitory effect on pulmonary infections: Mycoplasma pneumonia: 41.20 ± 7.30
Pneumonia fungi
  Inhibitory effect on pulmonary infections: Fungal pneumonia: 53.22 ± 4.14
[1]
  content of AST in serum, difference from model group: highly significantly different from the model group (*** P<0.001)
  content of HYP in the liver tissue, difference from model group: highly significantly different from the model group (*** P<0.001)
[5]
  Inhibitory effect on pulmonary infections: Pneumonia caused by pulmonary infections: 50.99 ± 6.88
adenovirus
  Inhibitory effect on pulmonary infections: Viral pneumonia: 70.33 ± 9.27
protozoa
  Inhibitory effect on pulmonary infections: Protozoal pneumonia: 62.16 ± 3.28
Streptococcus pneumoniae
  Inhibitory effect on pulmonary infections: Bacterial pneumonia: 43.69 ± 8.66
Chlamydia pneumoniae
  Inhibitory effect on pulmonary infections: Chlamydia pneumonia: 45.86 ± 5.22

## PRCYRGEGGGGIVRRADRAAVPGGGGRGD [Polypeptide II]
Mice with skin fibrosis
  content of HYP in the skin tissue, difference from model group: highly significantly different from the model group (*P<0.05)
[2]
  content of TGF-β1 in serum, difference from model group: highly significantly different from the model group (*P<0.05)
[3]
  Survival rate (%): 78.6%
[3]; bleomycin-induced pulmonary fibrosis, comparison with Nintedanib
  reduction of HYP in lung tissues compared with the positive drug: better effects than the positive drug
[3]; [6]
  content of HYP in lung tissues, difference from model group: highly significantly different from the model group (*** P<0.001)
  content of TGF-β1 in serum, difference from model group: highly significantly different from the model group (*** P<0.001)
[4]
  content of TGF-β1 in serum, difference from model group: highly significantly different from the model group (*** P<0.001)
Mycoplasma pneumoniae
  Inhibitory effect on pulmonary infections: Mycoplasma pneumonia: 45.69 ± 5.72
Pneumonia fungi
  Inhibitory effect on pulmonary infections: Fungal pneumonia: 60.32 ± 3.07
[1]
  content of AST in serum, difference from model group: highly significantly different from the model group (*** P<0.001)
  content of HYP in the liver tissue, difference from model group: highly significantly different from the model group (*** P<0.001)
[5]
  Inhibitory effect on pulmonary infections: Pneumonia caused by pulmonary infections: 63.15 ± 5.87
adenovirus
  Inhibitory effect on pulmonary infections: Viral pneumonia: 50.27 ± 8.08
protozoa
  Inhibitory effect on pulmonary infections: Protozoal pneumonia: 63.60 ± 6.16
Streptococcus pneumoniae
  Inhibitory effect on pulmonary infections: Bacterial pneumonia: 41.25 ± 9.48
Chlamydia pneumoniae
  Inhibitory effect on pulmonary infections: Chlamydia pneumonia: 45.81 ± 5.21

## COC(=O)c1ccc2c(c1)NC(=O)/C2=C(\Nc1ccc(N(C)C(=O)CN2CCN(C)CC2)cc1)c1ccccc1 [Nintedanib, reference compound]
[3]
  Survival rate (%): 85.7%
[3]; [6]
  content of HYP in lung tissues, difference from model group: highly significantly different from the model group (** P<0.01)
  content of TGF-β1 in serum, difference from model group: highly significantly different from the model group (*** P<0.001)

## Penicillin [reference compound]
Mycoplasma pneumoniae
  Inhibitory effect on pulmonary infections: Mycoplasma pneumonia: 39.78 ± 5.23
Pneumonia fungi
  Inhibitory effect on pulmonary infections: Fungal pneumonia: 36.87 ± 2.82
[5]
  Inhibitory effect on pulmonary infections: Pneumonia caused by pulmonary infections: 39.56 ± 4.35
adenovirus
  Inhibitory effect on pulmonary infections: Viral pneumonia: 48.07 ± 2.07
protozoa
  Inhibitory effect on pulmonary infections: Protozoal pneumonia: 40.34 ± 3.02
Streptococcus pneumoniae
  Inhibitory effect on pulmonary infections: Bacterial pneumonia: 37.05 ± 4.35
Chlamydia pneumoniae
  Inhibitory effect on pulmonary infections: Chlamydia pneumonia: 32.57 ± 3.13
